Data: paper PMC4643019, “Imaging Sites of Inhibition of Proteolysis in Pathomimetic Human Breast Cancer Cultures by Light-Activated Ruthenium Compound” (PLoS ONE, 2015)
Entries after “also recorded” stand apart in the source; their conditions may differ. Read-outs that look alike come from different tables or passages of the source.

What was measured:
[1] = molecular target: T1, CTSB activity in MDA-MB-231 cell lysates (Homo sapiens, UniProt P07858); assay: Inhibition of cellular cathepsin B activity in MDA-MB-231 cell lysates (Z-Arg-Arg-AMC); assay type: biochemical; settings: for IC50: MDA-MB-231 lysate
T1 construct: endogenous in cells; host or cells: MDA-MB-231 (ATCC) cell lysate
Procedure: (§1) TNBC cell lines were originally purchased from American Type Culture Collection (Rockville, MD, USA) and authenticated using the STR PowerPlex 16 system (Promega). Cells were cultured in basal medium supplemented with 10% fetal bovine serum (MDA-MB-231, DMEM; Hs578T, DMEM + 10 μg/ml bovine insulin). To prepare cell lysates, cells were grown on 100 mm dishes to ~80% confluency, washed twice with PBS (phosphate buffered saline), scraped and lysed in SME buffer (250 mM sucrose, 25 mM MES, 1 mM EDTA, pH 6.5, and 0.1% Triton X-100) and then sonicated on ice three times for 10 sec each. CTSB activity was measured as previously described. Briefly, 50 μl of cell lysate was incubated with 300 μl of activator buffer (5 mM EDTA, 10 mM DTT (pH 5.2) at 37°C during 15 min. The sample (1 μl) was added to 100 μl of the activator buffer containing cell lysate and the reaction mixtures were conducted during 45 min under dark (no irradiation) and light (irradiation at 250 W, 395–750 nm) conditions for 45 min with a tungsten halogen lamp and H2O filter on separate plates as described above. The experiments were carried out in triplicate (on 96-well flat bottom black plates) at pH 6.0.

[2] = Photoinduced ligand exchange quantum yield; assay type: physicochemical
Procedure: Electronic absorption spectra were measured with a Hewlett-Packard 8453 diode array spectrophotometer. The ligand exchange quantum yield experiments were performed with a 150 W Xe arc lamp (USHIO) in a Milliarc lamp housing unit with an LPS-220 power supply and an LPS-221 igniter (PTI). A bandpass filter (Thorlabs) and long-pass filter (CVI Melles Griot) were used to select the appropriate irradiation wavelengths.
The photolysis experiments were performed in H2O with 2% acetone and in an acetone solution containing 0.25 M tetrabutylammonium, and the chloride (TBACl) in a 1 × 1 cm quartz cuvette, and the irradiation wavelengths were selected with a 395 nm long-pass filter. The photon flux of the arc lamp with a 335 nm long-pass filter and a 400 nm bandpass filter was determined to be 4.30 ± 0.25 × 10^−8 mol photons/min by ferrioxalate actinometry as previously described in detail. The quantum yields (Φ) for ligand dissociation of 2 were determined in each of the solvent systems in a 1 × 1 cm quartz cuvette. The decrease in the MLCT absorption maximum of the reactant with ε = 10,360 M^–1cm^–1 at 412 nm as a function of time was monitored at early irradiation times to calculate the rate of moles of reactant converted to intermediate, I. The increase of the MLCT absorption maximum of the product at 490 nm (ε = 9,300 M^–1cm^–1) was monitored at irradiation times after the formation of the intermediate to determine the rate of moles of product P formed. These rates along with the photon flux were used to calculate the quantum yields for the first and second steps, ΦR→I and ΦI→P, respectively.

[3] = molecular target: T2, CTSB activity in Hs578T cell lysates (Homo sapiens, UniProt P07858); assay: Inhibition of cellular cathepsin B activity in Hs578T cell lysates (Z-Arg-Arg-AMC); assay type: biochemical; settings: for IC50: Hs578T lysate
T2 construct: endogenous in cells; host or cells: Hs578T (ATCC) cell lysate
Procedure: as §1

[4] = test system: MDA-MB-231 3D MAME cultures; assay: Live-cell proteolysis assay (DQ-collagen IV) in 3D MAME cultures, MDA-MB-231; assay type: cell-based, human
Procedure: (§2) Proteolytic cleavage of DQ-collagen IV substrate (Invitrogen, Carlsbad, CA, USA) by live TNBC cells was imaged in real time and quantified as previously described. Briefly, glass coverslips were coated with 50 μl of 16.4 mg/ml Cultrex^TM containing 25 μg/ml DQ-collagen IV and incubated for 15 min at 37°C to solidify. TNBC cells (1.0 x 10^4) were seeded onto coated glass coverslips and incubated for 60 min. Medium containing 2% Cultrex^TM was added to the cells. The sample was added every 48 h. […] Where indicated, assays were performed in the presence of CA074 and CA074Me (5 μM each) (Peptides International, Louisville, KY, USA), compound 1 or compound 2. For experiments with the caged inhibitor, cells were exposed to dark (no irradiation) and light (irradiation at 250 W, 395–750 nm) conditions for 45 min with a tungsten halogen lamp and H2O filter on separate plates. After 4 days of culture, optical sections through the entire depth of the 3D structures were acquired on a confocal microscope and, reconstructed in 3D using Volocity software. At the time of imaging cells were stained with CellTracker Orange and nuclei with Hoechst 33342. Volocity software was used to determine cellular boundaries in each confocal slice and generate a “cytoplasmic mask” as well as to count nuclei. The intensity of DQ-collagen IV degradation fragments per cell was quantified in the entire 3D volume. Degradation fragments were segmented into those present inside or surrounding the cells by using image arithmetic as we have previously described in detail.

[5] = Stability in the dark, determined spectrophotometrically (ln A vs. t); assay type: physicochemical
Excerpt: This was expected because cis-[Ru(bpy)2Cl2] was used as a racemic mixture of Δ- and Λ stereoisomers. […] The electronic absorption spectrum of 2 is highly consistent with other dications of the general formula cis-[Ru(bpy)2(RCN)2]^2+, where RCN is MeCN,^130 5-cyanouracil,^124 and protease inhibitors structurally related to 1 [17–18]. Data for 2 in water containing 2% acetone show a maximum at 420 nm (ε = 10,360 M^-1cm^-1) assigned to a singlet metal-to-ligand charge transfer (^1MLCT) transition.

Hs578T 3D MAME cultures [6] = assay: Live-cell proteolysis assay (DQ-collagen IV) in 3D MAME cultures, Hs578T; assay type: cell-based, human
Procedure: as §2

[7] = test system: MDA-MB-231 3D MAME cultures; assay: Cell viability (Live/Dead) assay, MDA-MB-231 3D MAME cultures; assay type: cell-based; settings: in the dark or the light, 4 days
Procedure: (§3) Three-dimensional cultures of TNBC cells were established, grown and treated with compound 2 as described above. After 4 days, a cell viability assay was performed to assess the cytotoxic effects of compound 2. The assay has two components: Calcein AM that fluoresces green when cleaved by intracellular esterases thereby labeling live cells and Ethidium Homodimer-1 that fluoresces red when incorporated in the DNA of dead cells. A solution of 4 μM Ethidium Homodimer-1 and 2 μM Calcein AM was prepared in sterile PBS. Cultures were incubated for 30 minutes at 37°C, washed once with warm PBS and replenished with warm MEGM media for live cell imaging. The samples were then imaged at 10X magnification using a Zeiss 510 META confocal microscope. Tiled 16-panel images and z-stacks through the depth of structures were captured. The images were processed to show top views using Volocity software.

[8] = molecular target: T3, CTSB purified from human liver (Homo sapiens, UniProt P07858); assay: Cathepsin B activity assay with purified enzyme (Z-Arg-Arg-AMC); assay type: biochemical; settings: for IC50: CTSB 10 nM, substrate 150 μM
T3 construct: CTSB purified from human liver was purchased from Athens Research & Technology; purchased Athens Research & Technology (Athens, GA, USA); host or cells: human liver (tissue-purified)
Procedure: CTSB purified from human liver was purchased from Athens Research & Technology (Athens, GA, USA). The enzyme activity was determined from kinetic measurements performed by fluorimetric detection of the hydrolysis product AMC at 37°C for 30 min at one-minute intervals using a Tecan SpectraFluor Plus plate-reader. The excitation and emission wavelengths were 360 and 485 nm, respectively. The fluorescent substrate Z-Arg-Arg-AMC (Bachem, Torrance, CA, USA) was used at a final concentration of 150 μM.
The enzyme was activated for 15 minutes with activator buffer (100 μl) containing 5 mM EDTA, 10 mM DTT (pH 5.2) at 37°C. The sample (1 μl) was added and the reaction mixtures were conducted during 45 min under dark (no irradiation) and light (irradiation at 250 W, 395–750 nm) conditions with a tungsten halogen lamp and H2O filter on separate plates. For the experiments under dark conditions, room lights were off and in addition the plate was covered with aluminum foil (light protection); the other plate was exposed to visible light for the same time period. The irradiation wavelength was selected by placing a 395 long-pass filter between the lamp and the sample, along with a 10 cm water cell to absorb infrared light. After photolysis, the reaction was initiated by addition of 200 μl of assay buffer (0.6 mM CaCl2, 0.6 mM MgCl2, 25 mM piperazin-N-N‘-bis[2-ethanosulfonic acid] (disodium salt)), pH 7.3 containing 150 μM Z-Arg-Arg-AMC substrate solution. Enzyme concentration was 10 nM. The experiments were carried out in triplicate in 96-well flat bottom black plates at pH 6.0. Enzyme activities are expressed as a percentage, with 100% equal to activity in the absence of inhibitor. IC50 values were determined by plotting percent activity vs. log (inhibitor concentration).

Hs578T 3D MAME cultures [9] = assay: Cell viability (Live/Dead) assay, Hs578T 3D MAME cultures; assay type: cell-based; settings: in the dark or the light, 4 days
Procedure: as §3

Solubility (statement) = assay type: physicochemical
[10] = test system: recombinant human CTSB expressed in baculovirus; set-up: method as in PMID 11741472; settings: cited from earlier work
[11] = not told; cited from earlier work
cathepsin L = test system: cathepsin L; set-up: method as in PMID 12437121; settings: cited from earlier work
[12] = dark (no irradiation) 45 min, read-out: IC50 (dark)
[13] = light λirr = 395–750 nm, 45 min, read-out: IC50 (light)
[14] = acetone solution containing 0.25 M TBACl
[15] = water (2% acetone), λirr = 400 nm
[16] = uncaged compound 1, read-out: IC50

SMILES: Cc1cccc(CC(NC(=O)c2ccc(Cl)c(Cl)c2)C(=O)NCC#N)c1.Cc1cccc(CC(NC(=O)c2ccc(Cl)c(Cl)c2)C(=O)NCC#N)c1.F[B-](F)(F)F.F[B-](F)(F)F.[Ru+2].c1ccc(-c2ccccn2)nc1.c1ccc(-c2ccccn2)nc1 (mixture of isomers) [compound 2, Δ- and Λ-cis [Ru(bpy)2(1)2](BF4)2]
- dark/light ratio ([1]; MDA-MB-231 cell lysates): 79.6
- IC50 [1, 12]: 126 µM
- IC50 [1, 13]: 1.58 µM
- quantum yield of ligand exchange, first step ΦR→I [2, 14]: 0.056(9)
- quantum yield of ligand exchange, second step ΦI→P [2, 14]: 0.032
- quantum yield of ligand exchange, first step ΦR→I [2, 15]: 0.026(4)
- quantum yield of ligand exchange, second step ΦI→P [2, 15]: 0.0045(9)
- dark/light ratio ([3]; Hs578T cell lysates): 12.6
- IC50 [3, 12]: 11.2 µM
- IC50 [3, 13]: 0.89 µM
- degradation of DQ-collagen IV ([4]; MDA-MB-231, 1 μM, exposed to visible light, 4 days): significantly reduced
- inhibition of proteolysis in the dark ([4]; MDA-MB-231, higher concentrations than 1 μM, dark (data not shown)): significant inhibition of proteolysis
- kobs, rate constant for decomposition in the dark ([5]; DMSO, 293 ± 2 K): 1.6 ± 0.1 × 10^−7 s^-1
- kobs, rate constant for decomposition in the dark ([5]; phosphate buffered saline, pH 6.5, 293 ± 2 K): 1.2 ± 0.1 × 10^−6 s^-1
- degradation of DQ-collagen IV (Hs578T 3D MAME cultures [6]; 1 μM, exposed to visible light, 4 days): significantly reduced
- inhibition of proteolysis in the dark (Hs578T 3D MAME cultures [6]; higher concentrations than 1 μM, dark (data not shown)): significant inhibition of proteolysis
- toxicity by cell viability assay [7]: did not observe any toxicity
- IC50 [8, 12]: 3.4 µM
- IC50 ([8]; light λirr = 395–750 nm, 45 min, 250 W, read-out: IC50 (light)): 0.28 µM
- dark/light IC50 ratio ([8]; purified CTSB): 12
- toxicity by cell viability assay (Hs578T 3D MAME cultures [9]): did not observe any toxicity

SMILES: Cc1cccc(C[C@H](NC(=O)c2ccc(Cl)c(Cl)c2)C(=O)NCC#N)c1 [compound 1, (S)-3,4-dichloro-N-(1-((cyanomethyl)amino)-1-oxo-3-(m-tolyl)propan-2-yl)benzamide]
- IC50 [1, 16]: 1.54 µM
- IC50 [3, 16]: 0.91 µM
- total degradation of DQ-collagen IV ([4]; MDA-MB-231, 4 days of culture, concentration of 1 not given): significantly less degradation of DQ-collagen IV; also recorded: significant reductions
- pericellular proteolysis (DQ-collagen IV) ([4]; MDA-MB-231, 4 days, concentration of 1 not given): significant reductions
- solubility in H2O (Solubility (statement)): low solubility
- total degradation of DQ-collagen IV (Hs578T 3D MAME cultures [6]; 4 days of culture, concentration of 1 not given): significantly less degradation of DQ-collagen IV; also recorded: significant reductions
- pericellular proteolysis (DQ-collagen IV) (Hs578T 3D MAME cultures [6]; 4 days, concentration of 1 not given): significant reductions
- IC50 [8, 16]: 0.33 µM
- inhibition of recombinant human CTSB [10]: potent, selective and reversible inhibitor

SMILES: CCCNC(=O)[C@H]1O[C@@H]1C(=O)N[C@H](C(=O)N1CCC[C@H]1C(=O)OC)[C@@H](C)CC [CA074Me]
- cell permeability [11]: cell permeable
- inhibition of cathepsin L (cathepsin L): inhibits

SMILES: CC#N.CC#N.F[P-](F)(F)(F)(F)F.F[P-](F)(F)(F)(F)F.[Ru+2].c1ccc(-c2ccccn2)nc1.c1ccc(-c2ccccn2)nc1 [compound 3, cis-[Ru(bpy)2(MeCN)2](PF6)2, reference compound]
- inhibition of proteolysis (DQ-collagen IV) ([4]; MDA-MB-231, 1 μM, light vs. dark conditions, 4 days): did not inhibit proteolysis
- inhibition of proteolysis (DQ-collagen IV) (Hs578T 3D MAME cultures [6]; 1 μM, light vs. dark conditions, 4 days): did not inhibit proteolysis

SMILES: CCCNC(=O)[C@H]1O[C@@H]1C(=O)N[C@H](C(=O)N1CCC[C@H]1C(=O)O)[C@@H](C)CC [CA074]
- cell permeability [11]: non-cell permeable
- inhibition of cathepsin L (cathepsin L): not
